Patent US20210052616A1, “ANTHRACYCLINE ENCAPSULATED WITH A POLYSACCHARIDE FOR USE IN THE TREATMENT OF TUMOURS” (NANOVELOS S.A, priority 2018, published 2021)
“Also recorded” adds a separate entry of the source.

Assays:
[1] = MTT cytotoxicity test, HeLa; assay type: cell-based; settings: human, HeLa cells; for viability at 24 h, 125000 ng/ml NPs (pure drug equimolar): 1.25E+05 ng/ml NPs (pure drug equimolar); for viability at 24 h, 25000 ng/ml NPs (pure drug equimolar): 2.50E+04 ng/ml NPs (pure drug equimolar); for viability at 24 h, 50000 ng/ml NPs (pure drug equimolar): 5.00E+04 ng/ml NPs (pure drug equimolar)
Excerpt: (§1) In this test, […] present in the cells converts the soluble tetrazolium salt (3-4,5-dimethylthiazol-2-yl)-2,5-diphenyltetrazolium bromide) into a reduced form. The reaction yields water-insoluble purple crystalline formazan. The number of crystals formed depends on the enzyme activity so that it is directly proportional to the number of viable cells in the sample. Spectrophotometric measurement requires the use of an organic solvent to dissolve the crystals obtained (isopropanol). The change in colour intensity is measured by spectrophotometry at 570 nm wavelength. The test was performed for a number of dilutions (9) of nanoparticle solutions containing the tested anthracycline. The baseline concentration of nanoparticles for MTT tests was 2.5 mg of nanoparticles/ml. The results were compared to cytotoxicity results obtained for pure drugs with equimolar drug concentration (equal to the concentration encapsulated in nanoparticles). The study was also performed for drug-free nanoparticles (the carrier itself was obtained similarly to the nanoparticles with the drug). Cells not exposed to toxic substances were used as a control for toxicity studies.
(§2) After reaching 85-90% confluence, the cells were trypsinised using a 0.25% trypsin solution. The cells were then centrifuged (1200 rpm, 5 min.) and suspended in a culture medium suitable for a particular cell line. […] The cells were plated at a concentration of 1000 cells/100 μl of medium per culture well (96-well plates). The prepared plates were incubated (37° C./5% CO2/22 h to 26 h). Subsequently, the culture medium was replaced with a fresh one (100 μl) containing the appropriate concentration of the tested nanoparticles and set aside for 24 h (37° C./5% CO2). After the lapse of the test time, the medium was removed and replaced with 50 μl of an MTT reagent solution at a concentration of 1 mg/ml. The plate was incubated for 2 hours (37° C./5% CO2). Subsequently, the MTT solution was removed, and 100 μl of isopropanol was added. After shaking the plate on the shaker for 2 minutes, the results for 570 nm wavelength were read (reference value of 650 nm). The mean value of absorbance read OD570 of the cells not exposed to a toxic agent (control) should be above 0.7 [see literature item 206].
(§3) A decrease in the number of viable cells causes a decrease in metabolic activity in the sample. This reduction directly correlates with the amount of blue and purple formazan formed, monitored basing on the optical density at 570 nm. The following equation (C.1) is used to calculate viability reduction compared to control:
(§4) where: • OD570e is the mean value of the measured absorbance of the test samples; • OD570b is the mean value of the measured absorbance of the control.
(§5) The results obtained were statistically analysed using the Dixon Q test.

HeLa cell line = assay: MTT cytotoxicity test, HeLa; assay type: cell-based; settings: 24 h
Excerpt: as §1, §2, §3, §4, §5

internal organs [2] = assay: Macroscopic and histopathological examination of internal organs at necropsy (Example 3); assay type: in vivo, mice
mice = assay: Survival of mice during treatment (Example 3); assay type: in vivo; settings: EPI 15 mg/kg bw; NPs-EPI 3.75 and […] bw, i.v. every second day
OVCAR3 line cells = assay: Anti-tumour efficacy, tumour volume, OVCAR3 xenograft, 10 mg/kg bw every 3 days (Example 4); assay type: in vivo, mice
Excerpt: (§6) Following Example 3, mice were obtained constituting an ovarian tumour test model, which were divided into 3 groups.

[3] = 10 mg/kg bw every 3 days, following 3 administrations
Excerpt: as §6

internal organs [4] = settings: microscopic images, dose of 10 mg/kg bw
Excerpt: as §6

[5] = to limit side effects; cited from earlier work
[6] = 1.25E+04 ng/ml NPs (pure drug equimolar)
[7] = 1.25E+06 ng/ml NPs (pure drug equimolar)
[8] = 2.50E+05 ng/ml NPs (pure drug equimolar)
[9] = 2.50E+06 ng/ml NPs (pure drug equimolar)
[10] = 5.00E+03 ng/ml NPs (pure drug equimolar)
[11] = 5.00E+05 ng/ml NPs (pure drug equimolar)
[12] = 10 mg/kg bw every 3 days, group average

In the case of `COc1cccc2c1C(=O)c1c(O)c3c(c(O)c1C2=O)C[C@@](O)(C(=O)CO)C[C@@H]3O[C@H]1C[C@H](N)[C@@H](O)[C@H](C)O1` [Epi, epirubicin], the viability at 24 h, 125000 ng/ml NPs (pure drug equimolar) [1] is reported as 12.7%, the viability at 24 h, 25000 ng/ml NPs (pure drug equimolar) [1] is reported as 72.8% and the viability at 24 h, 50000 ng/ml NPs (pure drug equimolar) [1] is reported as 17%. The Average viability (HeLa cell line; [6]) was 98.38%, the Average viability (HeLa cell line; [7]) was 3.6% and the Average viability (HeLa cell line; [8]) was 14.93%. The Average viability (HeLa cell line; [9]) was 4.21%, the Average viability (HeLa cell line; [10]) was 100.18% and the Average viability (HeLa cell line; [11]) was 7.96%. For the same compound, the “inflammation and changes of liver and spleen compared to the control group” value (internal organs [2]; OVCAR3 mice) was “severe inflammation and changes in the structure of the liver”, the “Macroscopic evaluation of internal organs: Adrenal glands” value (internal organs [2]; mouse #5, 15 mg/kg bw) was “No visible changes” and the “Macroscopic evaluation of internal organs: Bladder” value (internal organs [2]; mouse #5, 15 mg/kg bw) was “No visible changes”. The “Macroscopic evaluation of internal organs: Brain” value (internal organs [2]; mouse #5, 15 mg/kg bw) was “No visible changes”, the “Macroscopic evaluation of internal organs: Heart” value (internal organs [2]; mouse #5, 15 mg/kg bw) was “No visible changes” and the “Macroscopic evaluation of internal organs: Left kidney” value (internal organs [2]; mouse #5, 15 mg/kg bw) was “Consistency softer than normal”. For the same compound, the “Macroscopic evaluation of internal organs: Liver” value (internal organs [2]; mouse #5, 15 mg/kg bw) was “consistency softer than normal, blood vessels; also recorded: Liver surface colour dark cherry to brown,”, the “Macroscopic evaluation of internal organs: Lung” value (internal organs [2]; mouse #5, 15 mg/kg bw) was “No visible changes” and the “Macroscopic evaluation of internal organs: Pancreas” value (internal organs [2]; mouse #5, 15 mg/kg bw) was “No visible changes”. The “Macroscopic evaluation of internal organs: Reproductive organs” value (internal organs [2]; mouse #5, 15 mg/kg bw) was “No visible changes”, the “Macroscopic evaluation of internal organs: Right kidney” value (internal organs [2]; mouse #5, 15 mg/kg bw) was “Consistency softer than normal” and the “Macroscopic evaluation of internal organs: Spleen” value (internal organs [2]; mouse #5, 15 mg/kg bw) was 1.6 cm × 0.4 cm × 0.1 cm in size, and slightly smaller, dark brown in colour. For the same compound, the “Macroscopic evaluation of internal organs: Stomach” value (internal organs [2]; mouse #5, 15 mg/kg bw) was “No visible changes”, the “Macroscopic evaluation of internal organs: Thymus” value (internal organs [2]; mouse #5, 15 mg/kg bw) was “No visible changes” and the “External appearance of the mouse: skin thick” value (internal organs [2]; mouse #5, EPI/OVCAR3 group, 15 mg/kg bw) was 0.21 mm. The “External appearance of the mouse” value (internal organs [2]; mouse #5, EPI/OVCAR3 group, 15 mg/kg bw, 15 mg/kg) was “Anal area dirty with faeces, mouse; also recorded: cachectic”, the “death or survival of the mice during treatment” value (mice) was “resulted in the death of the mice” and the “Average tumour volume (mm^3) Before necropsy” value (OVCAR3 line cells; 10 mg/kg bw every 3 days (group K), after 3 administrations) was 124.45 ± 57.05 mm^3. For the same compound, the “Average tumour volume (mm^3) Before 1st administration” value (OVCAR3 line cells; [12]) was 143.56 ± 9.22 mm^3, the “Average tumour volume (mm^3) Before 2nd administration” value (OVCAR3 line cells; [12]) was 148.77 ± 41.82 mm^3 and the “Average tumour volume (mm^3) Before 3rd administration” value (OVCAR3 line cells; [12]) was 131.00 ± 42.96 mm^3. For the same compound, the “average increase of tumour volume” value (OVCAR3 line cells; 10 mg/kg bw, after the first dose) was 3.63%, the “average decrease of body weight” value [3] was 22.55% and the “Appearance of the organ: Tumour” value (internal organs [4]) was “anaplastic lesions, moderate tumour necrosis”. The “Appearance of the organ: Liver” value (internal organs [4]; 10 mg/kg) was “Hyperaemia, features of hepatocyte; also recorded: feathery degeneration, focal necrosis” and the “Appearance of the organ: Reproductive organs” value (internal organs [4]; 10 mg/kg) was “Severe lesions, endometrial hypertrophy,; also recorded: cystic lesions, the growth of Leydig cells”.

`COc1cccc2c1C(=O)c1c(O)c3c(c(O)c1C2=O)C[C@@](O)(C(C)=O)C[C@@H]3O[C@H]1C[C@H](N)[C@H](O)[C@H](C)O1` [Dau, daunorubicin] gave a viability at 24 h, 125000 ng/ml NPs (pure drug equimolar) [1] of 7.89%, a viability at 24 h, 25000 ng/ml NPs (pure drug equimolar) [1] of 2.11% and a viability at 24 h, 50000 ng/ml NPs (pure drug equimolar) [1] of 4.14%. For the same compound, the Average viability (HeLa cell line; [6]) was 2.851%, the Average viability (HeLa cell line; [7]) was 107.342% and the Average viability (HeLa cell line; [8]) was 7.579%. The Average viability (HeLa cell line; [9]) was 111.366%, the Average viability (HeLa cell line; [10]) was 2.054% and the Average viability (HeLa cell line; [11]) was 28.287%. For the same compound, the “maximum recommended cumulative dose” value [5] was 500 mg/m^2.
